# Measurements as given in patent US11883404B2, “Preparation and composition for treatment of malignant tumors” (TAIHO PHARMACEUTICAL CO., LTD., priority 2016, dated 2024).
# pIC50: −log10 of the molar value. Structures can show the parent of a compound that is named as a salt. Where two headings read alike, the source gives them in different places.
# Key:
# [1] = test system: Human lung cancer line HCC4006; settings: 100 ng/mL FGF7, 72 hours
# Protocol: (§4) Cell survival rates were measured using CellTiter-Glo. The cells were recovered by an ordinary method, suspended in the above medium containing 10% fetal bovine serum, and seeded in a 96-well plate. The number of cells seeded per well was set to 2000 cells/70 μL. […] In order to study effects on the activated FGF/FGFR pathway in the cells, a ligand FGF2 or FGF7 was added to the cells and compared with non-addition. […] DMSO was added to a control well, and 10 ng/mL FGF2 or 100 ng/mL FGF7 was added to the medium.
# (§5) The cells were incubated at 37° C. for 72 hours under 5% CO2. Then, 100 μL of CellTiter-Glo solution was added to each well, and the cells were incubated at room temperature for 10 minutes, followed by the measurement of chemiluminescence intensity using a plate reader (ARVO). Growth inhibitory effects relative to the vehicle group were calculated from the obtained data.
# [2] = test system: Human lung cancer line NCI-H1650; settings: 100 ng/mL FGF7, 72 hours
# Protocol: as §4, §5
# [3] = test system: human gastric cancer line SNU-16; test: Antitumor effect of Compound 1 and paclitaxel on subcutaneously implanted SNU-16 tumor in nude mouse (Example 2); settings: for T/C (%): Day 15
# [4] = test system: human endometrial cancer line AN3CA; test: Antitumor effect of Compound 1 and gemcitabine on subcutaneously implanted AN3CA tumor in nude mouse (Example 4); assay type: in vivo, BALB/cAJcl-nu/nu mice; settings: Day 15
# Protocol: Gemcitabine was administered at 100 mg/kg/day from the tail vein at Day 1 and Day 8.
# [5] = test system: human endometrial cancer line AN3CA; settings: for T/C (%): Day 11
# [6] = test system: human endometrial cancer line AN3CA; test: Antitumor effect of Compound 1 and Compound 2 on subcutaneously implanted AN3CA tumor in nude mouse (Example 16); assay type: in vivo, BALB/cAJcl-nu/nu mice; settings: alone, Day 15
# Protocol: The day at which the grouping was carried out was defined as Day 0. TV(mm^3)=(Major axis×Minor axis^2)/2(units for the major axis and the minor axis were mm).
# The dose of Compound 2 was set in consideration of well tolerated dose for nude mice, etc.
# (§1) RTV was calculated according to the expression given below from TV values on the day of measurement and on the day of grouping. […] RTV=(TV on the day of measurement)/(TV on the day of grouping) T/C (%)=(Average RTV in each medicine administration group on the day of assessment)/(Average RTV in the control group on the day of assessment)×100
# [7] = test system: human small cell lung cancer cell line DMS 114; test: Cell survival rate assay (CellTiter-Glo 2.0), IC50 and combination index of Compound 1 and Compound 2 (Example 15); assay type: cell-based; settings: each medicine alone, 72 hours
# Protocol: A human small cell lung cancer cell line DMS 114 was cultured using a Waymouth's medium containing 10% fetal bovine serum. The cells were maintained at 37° C. under 5% CO2 and subcultured at a ratio of 1:5 to 1:20 by 1 to 2 passages per week.
# Cell survival rate was measured using CellTiter-Glo 2.0 (produced by Promega Corp.). The cells were collected by an ordinary method, then suspended in a Waymouth's medium containing 10% fetal bovine serum, and seeded in a 96-well plate. The number of cells seeded per well was set to 2000 cells/50 μL. […] In addition to groups of each medicine alone, groups of both the medicines simultaneously added were prepared in parallel. […] Cell survival rates were calculated by adding 50 μL of CellTiter-Glo 2.0 solution to each well, incubating the cells at room temperature for 15 minutes, and then measuring the chemiluminescence intensity of each well using a plate reader (FlexStation 3). The cell survival rates in medicine addition were calculated as a ratio vs. the control group (100%) according to the following equation: Cell survival rate (%)=(Chemiluminescence intensity at the time of medicine addition)/(Chemiluminescence intensity of the control group)×100
# Also, Fa (fraction of affect) values were calculated by subtracting a 1/100 value of the cell survival rate from 1. […]
# [8] = test system: human endometrial cancer line AN3CA; test: Apoptosis induction, CellEvent Caspase-3/7 Green Detection, Compound 1 and Compound 2 (Example 14); assay type: cell-based; settings: Compound 1 100 nM, Compound 2 100 nM, 24 hours
# Protocol: (§2) The presence or absence of induction of apoptosis by concomitant use was observed using CellEvent™ Caspase-3/7 Green Detection Reagent (Invitrogen Corp.). […] The concentration of Compound 2 was set to 100 nM. These medicines used alone (DMSO was added as a control) or concomitantly were comparatively studied. […] Apoptosis was detected by adding 6 μL of CellEvent™ Caspase-3/7 Green Detection Reagent (Invitrogen Corp.) solution per well to the cells, incubating the cells at 37° C. for 30 minutes, and then measuring cell images in the bright field and fluorescence signals, under a fluorescence microscope. The observed fluorescence signals indicate the induction of Caspase 3/7, and the amplitude of the signals represents the presence or absence of induction of apoptosis-like cell death.
# phosphorylated mTOR = test: Western blot, intracellular phosphorylation of mTOR in AN3CA (Example 11); assay type: cell-based, human; settings: everolimus 3 nM alone
# Protocol: (§3) The intracellular phosphorylation levels of ERK, AKT, mTOR and S6 were detected by Western blot method. […] Likewise, MK2206 dihydrochloride was added at a final concentration of 5 μM (in terms of a free form), and everolimus was added at a final concentration of 3 nM. Each medicine alone and each combination were studied. DMSO was added as a control at a final concentration of 0.2%.
# Then, cell lysates were prepared using RIPA Buffer [composition: 50 mM Tris-HCl (pH 8.0), 150 mM NaCl, 5 mM EDTA, 1% (w/w) Nonidet P-40, 0.1% (w/w) sodium deoxycholate, and 0.1% (w/w) SDS]. The amounts of phosphorylated AKT, phosphorylated ERK, phosphorylated mTOR, phosphorylated S6 and GAPDH were detected using Western blot according to an ordinary method.
# [9] = test system: human endometrial cancer line AN3CA; settings: alone, Day 15
# Protocol: An engrafted tumor was removed from the mice, chopped into fragments of 2 mm square, and then subcutaneously implanted to 6-week-old female BALB/cAJcl-nu/nu mice.
# Everolimus was orally administered each day at 2 mg/kg/day for 14 days.
# phosphorylated AKT = test: Western blot, intracellular phosphorylation of AKT in AN3CA (Example 11); assay type: cell-based, human; settings: Compound 1 10 and 100 nM, MK2206 dihydrochloride 5 μM
# Protocol: as §3, with “0.2%. […] The amounts of phosphorylated AKT, phosphorylated ERK, phosphorylated mTOR, phosphorylated S6 and GAPDH were detected using Western blot according to an ordinary method.” for “0.2%.”
# [10] = test system: human endometrial cancer line AN3CA; test: Apoptosis induction, CellEvent Caspase-3/7 Green Detection, Compound 1 and MK2206 (Example 9); assay type: cell-based; settings: Compound 1 10 nM, MK2206 dihydrochloride 300 nM (free form), 24 hours
# Protocol: as §2, with “MK2206 dihydrochloride” for “Compound 2”, “300 nM (in terms of a free form).” for “100 nM.”, “1” for “6”
# [11] = test system: human gastric cancer line SNU-16; assay type: in vivo; settings: alone
# Protocol: The day at which the grouping was carried out was defined as Day 0. TV (mm^3)=(Major axis×Minor axis^2)/2(units for the major axis and the minor axis were mm).
# as §1
# [12] = Compound 1 15 mg/kg/day orally once a day for 14 days, alone
structure (smiles),measurement,setting,value
COc1cc2ncnc(Nc3ccc(F)c(Cl)c3)c2cc1OCCCN1CCOCC1 [gefitinib],drug effect of gefitinib on addition of the FGFR ligand FGF7,[1],attenuated
same,drug effect of gefitinib on addition of the FGFR ligand FGF7,[2],attenuated
"CC(=O)O[C@H]1C(=O)[C@@]2(C)[C@H]([C@H](OC(=O)c3ccccc3)[C@]3(O)C[C@H](OC(=O)[C@H](O)[C@@H](NC(=O)c4ccccc4)c4ccccc4)C(C)=C1C3(C)C)[C@]1(OC(C)=O)CO[C@@H]1C[C@@H]2O [paclitaxel, reference compound]",body weight change of the mice,"[3]; paclitaxel 60 mg/kg, concomitant use group vs each medicine group",transient decrease in body weight
same,T/C (%),"[3]; paclitaxel single dose 60 mg/kg/day tail vein at Day 1, alone",12.9%
"Nc1ccn([C@@H]2O[C@H](CO)[C@@H](O)C2(F)F)c(=O)n1 [gemcitabine, reference compound]",T/C (%),"[4]; gemcitabine 100 mg/kg/day tail vein at Day 1 and Day 8, alone",75.5%
N.N.[Cl][Pt][Cl] [cisplatin],T/C (%),"[5]; cisplatin 7 mg/kg/day tail vein at Day 1, alone",53.0%
same,body weight change of the mice,"[5]; mouse, in vivo",transient decrease in body weight
"CC1(O)CC(N)(c2ccc(-c3nc4n(c3-c3ccccc3)COc3ccncc3-4)cc2)C1 (stereo not drawn) [Compound 2, trans-3-amino-1-methyl-3-(4-(3-phenyl-5H-imidazo[1,2-c]pyrido[3,4-e][1,3]oxazin-2-yl)phenyl)cyclobutanol]",T/C (%),[6]; Compound 2 4 mg/kg/day orally once a day for 14 days,58.6%
same,T/C (%),[6]; Compound 2 8 mg/kg/day orally once a day for 14 days,55.4%
same,pIC50,[7],5.31
same,induction of cell death (Caspase 3/7 fluorescence signals),[8],hardly found
"CO[C@H]1C[C@@H]2CC[C@@H](C)[C@@](O)(O2)C(=O)C(=O)N2CCCC[C@H]2C(=O)O[C@H]([C@H](C)C[C@@H]2CC[C@@H](OCCO)[C@H](OC)C2)CC(=O)[C@H](C)/C=C(\C)[C@@H](O)[C@@H](OC)C(=O)[C@H](C)C[C@H](C)/C=C/C=C/C=C/1C [everolimus, reference compound]",mTOR phosphorylation,phosphorylated mTOR,inhibited
same,T/C (%),[9]; everolimus 2 mg/kg/day orally each day for 14 days,27.1%
"NC1(c2ccc(-c3nc4ccn5c(=O)[nH]nc5c4cc3-c3ccccc3)cc2)CCC1 [MK2206 dihydrochloride, 8-[4-(1-aminocyclobutyl)phenyl]-9-phenyl-1,2,4-triazolo[3,4-f][1,6]naphthyridin-3(2H)-one]",AKT phosphorylation,phosphorylated AKT,inhibited
same,induction of cell death (Caspase 3/7 fluorescence signals),[10],hardly found
"C=CC(=O)N1CC[C@H](n2nc(C#Cc3cc(OC)cc(OC)c3)c3c(N)ncnc32)C1 [Compound 1, (S)-1-(3-(4-Amino-3-((3,5-dimethoxyphenyl)ethynyl)-1H-pyrazolo[3,4-d]pyrimidin-1-yl)pyrrolidin-1-yl)prop-2-en-1-one]",T/C (%),[6]; Compound 1 15 mg/kg/day orally once a day for 14 days,22.1%
same,T/C (%),"[11]; Compound 1 5 mg/kg/day orally once a day for 14 days, day of assessment (Day 15)",83.6%
same,T/C (%),"[11]; Compound 1 15 mg/kg/day orally once a day for 14 days, Day 15",69.0%
same,T/C (%),"[4]; Compound 1 15 mg/kg/day orally each day for 14 days, alone",42.1%
same,T/C (%),"[3]; Compound 1 5 mg/kg/day orally once a day for 14 days, alone",83.6%
same,T/C (%),[3]; [12],69.0%
same,T/C (%),[9]; Compound 1 15 mg/kg/day orally each day for 14 days,33.3%
same,T/C (%),[9]; Compound 1 50 mg/kg/day orally each day for 14 days,12.6%
same,T/C (%),[5]; [12],46.0%
